Reference: publication PMC4560162, “Discovery of small molecule inhibitors of xyloglucan endotransglucosylase (XET) activity by high-throughput screening” (Phytochemistry, 2015)
“Also recorded” adds a separate entry of the source. Where two headings read alike, the source gives them in different places. Each block holds one molecule with its values, some of them ahead of it.

What was measured:
parsley XET activity = assay: Radiochemical XET assay (soluble xyloglucan + [3H]XXXGol); assay type: biochemical; conditions: for effect on XET activity, first radiochemical re-screen of EDI hits: most xenobiotics at 200 μg/ml (≈200–800 μM); for effect on XET activity in radiochemical assays (as summarised in the discussion): free solution; for effect on XET activity, radiochemical re-screen of 206 compounds (mostly LATCA): LATCA approx. 25 μM, EDI approx. 200 μg/ml, listed in order of decreasing effectiveness; for inhibition of XET activity: additional LATCA compounds re-tested radiochemically at 200 μM
Procedure: The parsley enzyme concentration was held constant, and the xenobiotics were tested at 200, 160, 120, 80, 40, 20, 10 and 0 μg/ml (concentrations in the final reaction mixture). Other details were as above.
The riboflavin-free controls received the same DMSO concentration.

[1] = tested on: Petroselinum xyloglucan endotransglucosylase (XET) activity; assay: Fluorescent dot-blot XET screen (cellulose-bound xyloglucan + XGO–SR on paper, in the dark); assay type: biochemical, parsley; conditions: for coagulation ('type c' effect) in dot-blot: EDI collection, 0.4 mg/ml in enzyme mixture
Procedure: For inhibitor screening, 53 new 96-well plates were set up with 50 μl of parsley enzyme extract per well, and 1 μl of DMSO-solubilised xenobiotic was added to each well, giving concentrations of 0.4 mg/ml (EDI collection, with exceptions noted in Table S2) or 50 μM (LATCA collection) and 2% v/v DMSO.
XET test-paper was prepared as before ([Fry, 1997]) and 112 × 75-mm sheets were attached to cellulose acetate overhead-projector sheets with ‘Spraymount’ adhesive. Each sheet was placed on a pre-cooled glass plate in a cold room at 4 °C.
For inhibitor screening (Fig. 2), 4 μl of a parsley enzyme/xenobiotic mixture was applied to each position on a sheet. Incubation at 20 °C for 2 h, washing, drying and photography were conducted essentially as above.

[2] = tested on: Zea cell-suspension cultures; assay: Cell expansion (SCV, PCV) in Zea cell-suspension culture; assay type: cell-based, Zea mays; conditions: Zea, 4 d incubation
Procedure: Cell-suspension cultures of “Paul’s Scarlet” rose [a complex hybrid; genus Rosa; isolated in October 1957 from sections of young stem material; [Nickell and Tulecke, 1959]) and maize (Zea mays L., Black Mexican Sweetcorn, donated by Dr. I. Moore, Department of Botany, University of Edinburgh) were grown under constant dim illumination (10 μmol m^−2 s^−1) on an orbital shaker at 25 °C. Rose cells were maintained as described by [Chormova et al. (2014)] and maize cells as described by [Kerr and Fry (2003)].
Eight xenobiotics that inhibited XET activity were selected for biological testing. Mini-cultures [2 ml, 5% (v/v) SCV; transferred from a standard culture 7 d after sub-culturing] were incubated in 12-well tissue culture microplates with the lids closed loosely. Xenobiotics were added as concentrated stocks in DMSO (final DMSO concentration 2%), and incubation was continued aseptically under standard conditions of temperature, lighting and shaking. After 4 d, 1 kBq of [^14C]proline was added per mini-culture. A small volume of medium (50 μl) was sampled 2 and 4 h after [^14C]proline addition and assayed for remaining extracellular ^14C. The culture was brought up to 10 ml with water and the settled and packed cell volumes (SCV, PCV) were then measured ([Fry and Street, 1980]). Most of the culture medium was then removed and the cells were finally killed by addition of 0.5 ml of 6% SDS. After 0.5 h at 100 °C, a 100-μl aliquot of the centrifuged SDS-extract was dried onto Whatman No. 3 paper, which was then washed in 75% ethanol supplemented with 0.5% acetic acid, thus removing free [^14C]proline and its low-Mr metabolites if any; radioactivity remaining on the paper ([^14C]protein) was then assayed.

[3] = tested on: Zea cell-suspension cultures; assay: Membrane function ([14C]proline uptake) in Zea culture; assay type: cell-based, Zea mays; conditions: 4 d after xenobiotic, higher tested concentration
[4] = soluble xyloglucan, laboratory light
[5] = EDI 0.4 mg/ml, LATCA 50 μM, 2 h, dark, cellulose-bound xyloglucan

effect on XET activity in dot-blot (inhibition / promotion) [1, 5]: promoted
coagulation ('type c' effect) in dot-blot [1]: coagulation
Molecule: O=C(CCc1ccc(O)cc1)c1c(O)cc(O)cc1O [phloretin]
effect on XET activity, first radiochemical re-screen of EDI hits (parsley XET activity): inhibitory
effect on XET activity in radiochemical assays (as summarised in the discussion) (parsley XET activity; [4]): inhibited

Molecule: Cc1ccc(SCc2ccc(C(=O)NCc3ccccn3)cc2)cc1 [4-{[(4-methylphenyl)thio]methyl}-N-(2-pyridinylmethyl)-benzamide]
effect on XET activity, radiochemical re-screen of 206 compounds (mostly LATCA) (parsley XET activity): inhibition

Molecule: Cc1cc(C(=C2C=CC(=Nc3ccc(S(=O)(=O)O)cc3)C=C2)c2ccc(Nc3ccc(S(=O)(=O)O)cc3)cc2)cc(S(=O)(=O)O)c1N [aniline blue]
effect on XET activity in radiochemical assays (as summarised in the discussion) (parsley XET activity; [4]): inhibiting XET activity

effect on XET activity in dot-blot (inhibition / promotion) [1, 5]: stimulatory
Molecule: Cc1cc2nc3cc(C)c(N)cc3[n+](-c3ccccc3)c2cc1N [Safranine O]

effect on XET activity in dot-blot (inhibition / promotion) [1, 5]: slightly enhanced
Molecule: COc1ccc([C@@H]2CC(=O)c3c(O)cc(O)cc3O2)cc1O [hesperetin]

effect on XET activity in dot-blot (inhibition / promotion) [1, 5]: promoted
Molecule: O=C(O)[C@]1(O)C[C@@H](O)[C@@H](O)[C@H](O)C1 [quinic acid]
effect on XET activity in radiochemical assays (as summarised in the discussion) (parsley XET activity; [4]): little effect

IC50 (parsley XET activity; read-out: IC50 (concentration required for 50% inhibition of XET activity), radiochemical assay, soluble xyloglucan, laboratory light, 2 h, 20 °C): ~400 µM
Molecule: O=C(O[C@@H]1Cc2c(O)cc(O)cc2O[C@@H]1c1ccc(O)c(O)c1)c1cc(O)c(O)c(O)c1 [epicatechin gallate]
effect on XET activity, first radiochemical re-screen of EDI hits (parsley XET activity): inhibitory

effect on XET activity in dot-blot (inhibition / promotion) [1, 5]: stimulatory
Molecule: C=C[C@@]1(C)CC(=O)[C@]2(O)[C@@]3(C)[C@@H](O)CCC(C)(C)[C@@H]3[C@H](O)[C@H](OC(C)=O)[C@@]2(C)O1 [forskolin]

Molecule: Cc1cc(C2(c3cc(C)c(O)c(Br)c3)OS(=O)(=O)c3ccccc32)cc(Br)c1O [bromocresol purple]
effect on XET activity, radiochemical re-screen of 206 compounds (mostly LATCA) (parsley XET activity): inhibition

Molecule: Cc1cccc(OCC(=O)N/N=C/c2ccc(Br)o2)c1 [N′-(1E)-(5-bromofuran-2-yl)methylidene-2-(3-methylphenoxy)acetohydrazide]
inhibition of XET activity (parsley XET activity): 24%

Molecule: C[CH2][Hg][S]c1ccccc1C(=O)[O-].[Na+] [thiomersal]
effect on XET activity, radiochemical re-screen of 206 compounds (mostly LATCA) (parsley XET activity): inhibition
effect on XET activity in dot-blot (inhibition / promotion) [1, 5]: did not show inhibitory effects

Molecule: CC(=O)[O][Hg][c]1ccccc1 [phenylmercuric acetate]
effect on XET activity, radiochemical re-screen of 206 compounds (mostly LATCA) (parsley XET activity): inhibition
effect on XET activity in dot-blot (inhibition / promotion) [1, 5]: inhibitors

Molecule: CC(C)C(C)C(O)C(O)C(C)C1CCC2C3COC(=O)C4CC(O)C(O)CC4(C)C3CCC12C (stereo not drawn) [epibrassinolide]
inhibition of XET activity (parsley XET activity): 22%

effect on XET activity in dot-blot (inhibition / promotion) [1, 5]: XET inhibitor
Molecule: O=c1c2ccccc2[se]n1-c1ccccc1 [ebselen]
effect on XET activity, radiochemical re-screen of 206 compounds (mostly LATCA) (parsley XET activity): inhibition
concentration inhibiting growth (PCV) without membrane impairment [2]: 70 µM

Molecule: tannic acid
effect on XET activity, first radiochemical re-screen of EDI hits (parsley XET activity): inhibitory

Molecule: O=[N+]([O-])[O-].[Ag+] [silver nitrate]
effect on XET activity in dot-blot (inhibition / promotion) [1]: inhibitors

membrane function [3]: impaired
Molecule: COc1c(C)c2c(c(O)c1C/C=C(\C)CCC(=O)O)C(=O)OC2 [mycophenolic acid]
concentration inhibiting growth (PCV) without membrane impairment [2]: 60 µM

effect on XET activity in dot-blot (inhibition / promotion) [1, 5]: promotion
Molecule: O=C(O)c1ccccc1C(=O)O [phthalic acid]

effect on XET activity in dot-blot (inhibition / promotion) [1, 5]: apparent promoters
Molecule: COc1cc(O)c2c(c1N)C(=O)c1ccccc1C2=O [1-amino-4-hydroxy-2-methoxyanthracene-9,10-dione]
inhibition of XET activity (parsley XET activity): 29%
effect on XET activity in radiochemical assays (as summarised in the discussion) (parsley XET activity; [4]): moderately inhibitory

effect on XET activity in dot-blot (inhibition / promotion) [1, 5]: promotion
Molecule: O=C(O)[C@H](O)[C@@H](O)[C@H](O)CO [xylonic acid]

Molecule: O=C(O)c1cc[c]([Hg][Cl])cc1 [4-chloromercuribenzoic acid]
effect on XET activity, radiochemical re-screen of 206 compounds (mostly LATCA) (parsley XET activity): inhibition
XET activity inhibited (parsley XET activity; by ∼50 μM, little further inhibition up to ∼400 μM): 50–60%
effect on XET activity in dot-blot (inhibition / promotion) [1, 5]: strong inhibitor

Molecule: O=C1c2cccc3c(Br)ccc(c23)C(=O)N1O [6-bromo-2-hydroxy-1H-benzo[de]isoquinoline-1,3(2H)-dione]
effect on XET activity, radiochemical re-screen of 206 compounds (mostly LATCA) (parsley XET activity): inhibition

effect on XET activity in dot-blot (inhibition / promotion) [1, 5]: stimulatory
Molecule: OCc1c[nH]c2ccccc12 [indole 3-carbinol]

effect on XET activity in dot-blot (inhibition / promotion) [1, 5]: stimulatory
Molecule: C[C@@H]1C/C=C/C=C/C=C/C=C/[C@H](O[C@@H]2O[C@H](C)[C@@H](O)[C@H](N)[C@@H]2O)C[C@@H]2O[C@](O)(C[C@@H](O)C[C@H]3O[C@@H]3/C=C/C(=O)O1)C[C@H](O)[C@H]2C(=O)O [natamycin]

effect on XET activity in dot-blot (inhibition / promotion) [1, 5]: promoted
coagulation ('type c' effect) in dot-blot [1]: coagulation
Molecule: O=c1cc(-c2ccc(O)c(O)c2)oc2cc(O)cc(O)c12 [luteolin]
effect on XET activity in radiochemical assays (as summarised in the discussion) (parsley XET activity; [4]): inhibited

effect on XET activity in dot-blot (inhibition / promotion) [1, 5]: slightly enhanced
Molecule: O=C(CCc1ccc(O)cc1)c1c(O)cc(O)cc1O[C@@H]1O[C@H](CO)[C@@H](O)[C@H](O)[C@H]1O [phloridzin]

coagulation ('type c' effect) in dot-blot [1]: coagulation
Molecule: O=C1OC(c2ccc(O)cc2)(c2ccc(O)cc2)c2ccccc21 [phenolphthalein]
effect on XET activity, first radiochemical re-screen of EDI hits (parsley XET activity): inhibitory

Molecule: COc1cccc2c1C(=O)c1c(O)c3c(c(O)c1C2=O)C[C@@](O)(C(C)=O)C[C@@H]3O[C@H]1C[C@H](N)[C@H](O)[C@H](C)O1 [daunorubicin]
effect on XET activity in radiochemical assays (as summarised in the discussion) (parsley XET activity; [4]): moderately inhibitory; also recorded: inhibited
effect on XET activity in dot-blot (inhibition / promotion) [1, 5]: apparent promoters; also recorded: promoted

effect on XET activity in dot-blot (inhibition / promotion) [1, 5]: promoted
coagulation ('type c' effect) in dot-blot [1]: coagulation
Molecule: O=c1cc(-c2ccccc2)oc2cc(O)c(O)c(O)c12 [baicalein]
effect on XET activity in radiochemical assays (as summarised in the discussion) (parsley XET activity; [4]): inhibited

effect on XET activity in dot-blot (inhibition / promotion) [1, 5]: did not show inhibitory effects
Molecule: Cc1cc2nc3c(=O)[nH]c(=O)nc-3n(C[C@H](O)[C@H](O)[C@H](O)COP(=O)(O)OP(=O)(O)OC[C@H]3O[C@@H](n4cnc5c(N)ncnc54)[C@H](O)[C@@H]3O)c2cc1C [flavin adenine dinucleotide]
effect on XET activity, radiochemical re-screen of 206 compounds (mostly LATCA) (parsley XET activity): inhibition

effect on XET activity in dot-blot (inhibition / promotion) [1, 5]: promoted
coagulation ('type c' effect) in dot-blot [1]: coagulation
Molecule: O=c1cc(-c2ccc(O)cc2)oc2cc(O)cc(O)c12 [apigenin]
effect on XET activity in radiochemical assays (as summarised in the discussion) (parsley XET activity; [4]): little effect

Molecule: CCOc1ccc(Nc2ccc(C(=C3C=CC(=[N+](CC)Cc4cccc(S(=O)(=O)[O-])c4)C=C3)c3ccc(N(CC)Cc4cccc(S(=O)(=O)O)c4)cc3)cc2)cc1 [brilliant blue R]
effect on XET activity, radiochemical re-screen of 206 compounds (mostly LATCA) (parsley XET activity): inhibition

effect on XET activity in dot-blot (inhibition / promotion) [1, 5]: promotion; also recorded: promoted
Molecule: O=C(O)[C@H](O)[C@@H](O)[C@H](O[C@@H]1O[C@H](CO)[C@H](O)[C@H](O)[C@H]1O)[C@H](O)CO [lactobionic acid]
effect on XET activity in radiochemical assays (as summarised in the discussion) (parsley XET activity; [4]): little effect
